Broadly, the pIC50 is −log10 of the IC50, conventionally taken in molar units. The low end stands for a high IC50, the high end for a low IC50.

pIC50: −log10 of the molar value.

The test concerns the target T1, CHK1 kinase (Homo sapiens, UniProt O14757).
T1 construct: glutathione S-transferase (GST); made in house; host or cells: Sf21 insect cells (S. frugiperda), baculovirus
T1 sequence (O14757 1-476): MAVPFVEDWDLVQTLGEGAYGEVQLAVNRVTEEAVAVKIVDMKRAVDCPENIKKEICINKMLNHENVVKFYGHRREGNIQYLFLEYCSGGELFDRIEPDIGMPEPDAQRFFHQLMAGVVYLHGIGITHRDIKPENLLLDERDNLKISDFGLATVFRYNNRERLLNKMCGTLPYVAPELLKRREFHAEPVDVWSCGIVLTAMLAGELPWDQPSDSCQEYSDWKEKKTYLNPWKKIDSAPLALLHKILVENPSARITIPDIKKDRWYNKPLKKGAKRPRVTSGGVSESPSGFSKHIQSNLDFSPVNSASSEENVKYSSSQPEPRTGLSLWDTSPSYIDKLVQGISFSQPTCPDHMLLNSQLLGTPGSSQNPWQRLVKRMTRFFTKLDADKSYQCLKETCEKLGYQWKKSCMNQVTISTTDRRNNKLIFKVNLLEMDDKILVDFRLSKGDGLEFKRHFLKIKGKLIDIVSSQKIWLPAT
Briefly: Flashplate method (CHK1), measurement of the CHK1 kinase activity. Format: biochemical. Particulars: class symbols; 'Affinity to receptors'. The method in brief:
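GST-tagged CHK1 expressed in Sf21 insect cells, incubated at 30 °C with biotinylated CHKtide (0.15 μg per well) and γ33P-ATP in pH 7.5 buffer (EGTA, Mg acetate, mercaptoethanol, 0.1% BSA). Stopped with EDTA, captured on streptavidin Flashplates and counted by scintillation. IC50 set against uninhibited reaction and 0.1 μM staurosporine as zero.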
The compound `O=c1c(NCc2cccc(OS(=O)(=O)C(F)(F)F)c2)c(Nc2ccc3[nH]cnc3c2)c1=O` [Compound A133, 3-(1H-benzimidazol-5-ylamino)-4-(3-trifluoro-methylsulfonyloxybenzylamino)cyclobut-3-ene-1,2-dione] had a pIC50 below 6.00. The compound `O=CNc1cccc(CNc2c(Nc3ccc4[nH]cnc4c3)c(=O)c2=O)c1` [Compound A134, 3-(1H-benzimidazol-5-ylamino)-4-(3-formyl-aminobenzylamino)cyclobut-3-ene-1,2-dione] showed a pIC50 below 6.00. The compound `O=c1c(NCc2cccc3[nH]ccc23)c(Nc2ccc3[nH]cnc3c2)c1=O` [Compound A135, 3-(1H-benzimidazol-5-ylamino)-4-[(1H-indol-4-ylmethyl)amino]cyclobut-3-ene-1,2-dione] showed a pIC50 below 6.00. Regarding `O=c1c(NCc2cc(O)ccc2F)c(Nc2ccc3[nH]cnc3c2)c1=O` [Compound A136, 3-(1H-benzimidazol-5-ylamino)-4-(2-fluoro-5-hydroxybenzylamino)cyclobut-3-ene-1,2-dione], the pIC50 is below 6.00. For `O=c1c(NCc2ccc3cc[nH]c3c2)c(Nc2ccc3[nH]cnc3c2)c1=O` [Compound A137, 3-(1H-benzimidazol-5-ylamino)-4-[(1H-indol-6-ylmethyl)amino]cyclobut-3-ene-1,2-dione], the negative-log IC50 (pIC50) was below 6.00. In turn, `COc1cccc(C(CCC2OCCCO2)Nc2c(Nc3ccc4[nH]cnc4c3)c(=O)c2=O)c1` (stereo not drawn) [Compound A138, 3-(1H-benzimidazol-5-ylamino)-4-[3-[1,3]-dioxan-2-yl-1-(3-methoxyphenyl)propyl-amino]cyclobut-3-ene-1,2-dione] gave a pIC50 below 6.00. The compound `O=c1c(NCc2ccc(O)cc2)c(Nc2ccc3[nH]cnc3c2)c1=O` [Compound A139, 3-(1H-benzimidazol-5-ylamino)-4-(4-hydroxy-benzylamino)cyclobut-3-ene-1,2-dione] gave a pIC50 below 6.00. Consider `O=c1c(NCCc2ccc(O)cc2)c(Nc2ccc3[nH]cnc3c2)c1=O` [Compound A140, 3-(1H-benzimidazol-5-ylamino)-4-[2-(4-hydroxyphenyl)ethylamino]cyclobut-3-ene-1,2-dione], for which the pIC50 was below 6.00.

The compound `CN1CCN(c2ccc(CNc3c(Nc4ccc5[nH]cnc5c4)c(=O)c3=O)cc2)CC1` [Compound A141, 3-(1H-benzimidazol-5-ylamino)-4-[4-(4-methylpiperazin-1-yl)benzylamino]cyclobut-3-ene-1,2-dione] gave a pIC50 below 6.00.

For the compound `O=c1c(NCCc2cccc(O)c2)c(Nc2ccc3[nH]cnc3c2)c1=O` [Compound A142, 3-(1H-benzimidazol-5-ylamino)-4-[2-(3-hydroxyphenyl)ethylamino]cyclobut-3-ene-1,2-dione], the pIC50 is below 6.00.

With `COc1ccccc1CCNc1c(Nc2ccc3[nH]cnc3c2)c(=O)c1=O` [Compound A143, 3-(1H-benzimidazol-5-ylamino)-4-[2-(2-methoxyphenyl)ethylamino]cyclobut-3-ene-1,2-dione], the pIC50 was below 6.00. The same measure for `COc1ccccc1CNc1c(Nc2ccc3[nH]cnc3c2)c(=O)c1=O` [Compound A144, 3-(1H-benzimidazol-5-ylamino)-4-(2-methoxybenzylamino)cyclobut-3-ene-1,2-dione]: below 6.00; for `CC(C)(C)OC(=O)N1CCC(Oc2ccccc2CNc2c(Nc3ccc4[nH]cnc4c3)c(=O)c2=O)CC1` [Compound A146, 3-(1H-benzimidazol-5-ylamino)-4-[2-(1-tert-butyloxycarbonylpiperidin-4-yloxy)benzyl-amino]cyclobut-3-ene-1,2-dione]: below 6.00; for `CN(C)c1ccc(CNc2c(Nc3ccc4[nH]cnc4c3)c(=O)c2=O)cc1` [Compound A147, 3-(1H-benzimidazol-5-ylamino)-4-(4-dimethylaminobenzylamino)cyclobut-3-ene-1,2-dione]: below 6.00. Take `O=c1c(NCc2ccccc2OC2CCNCC2)c(Nc2ccc3[nH]cnc3c2)c1=O` [Compound A148, 3-(1H-benzimidazol-5-ylamino)-4-[2-(piperidin-4-yloxy)benzylamino]cyclobut-3-ene-1,2-dione]: the pIC50 is below 6.00. The result for `O=c1c(NCCc2ccccc2O)c(Nc2ccc3[nH]cnc3c2)c1=O` [Compound A149, 3-(1H-benzimidazol-5-ylamino)-4-[2-(2-hydroxyphenyl)ethylamino]cyclobut-3-ene-1,2-dione] reads below 6.00; that for `CS(=O)(=O)c1ccc(CNc2c(Nc3ccc4[nH]cnc4c3)c(=O)c2=O)cc1` [Compound A150, 3-(1H-benzimidazol-5-ylamino)-4-(4-methyl-sulfonylbenzylamino)cyclobut-3-ene-1,2-dione], below 6.00; that for `NS(=O)(=O)c1ccc(CNc2c(Nc3ccc4[nH]cnc4c3)c(=O)c2=O)cc1` [Compound A151, 3-(1H-benzimidazol-5-ylamino)-4-(4-amino-sulfonylbenzylamino)cyclobut-3-ene-1,2-dione], below 6.00.

Take `CNS(=O)(=O)c1ccc(CNc2c(Nc3ccc4[nH]cnc4c3)c(=O)c2=O)cc1` [Compound A152, 3-(1H-benzimidazol-5-ylamino)-4-[4-(N-methylaminosulfonyl)benzylamino]cyclobut-3-ene-1,2-dione]: the pIC50 was below 6.00. `CNS(=O)(=O)c1ccc(CN(C)c2c(Nc3ccc4[nH]cnc4c3)c(=O)c2=O)cc1` [Compound A153, 3-(1H-benzimidazol-5-ylamino)-4-[4-(N-methylaminosulfonyl)benzyl-N-methylamino]-cyclobut-3-ene-1,2-dione]: the pIC50 was below 6.00.

With `CNS(=O)(=O)c1ccccc1CNc1c(Nc2ccc3[nH]cnc3c2)c(=O)c1=O` [Compound A154, 3-(1H-benzimidazol-5-ylamino)-4-[2-(N-methylaminosulfonyl)benzylamino]cyclobut-3-ene-1,2-dione], the pIC50 is below 6.00.

`NS(=O)(=O)c1ccccc1CNc1c(Nc2ccc3[nH]cnc3c2)c(=O)c1=O` [Compound A155, 3-(1H-benzimidazol-5-ylamino)-4-(2-amino-sulfonylbenzylamino)cyclobut-3-ene-1,2-dione]: the pIC50 is below 6.00. `CS(=O)(=O)Nc1ccc(CNc2c(Nc3ccc4[nH]cnc4c3)c(=O)c2=O)cc1` [Compound A156, 3-(1H-benzimidazol-5-ylamino)-4-(4-methyl-sulfonylaminobenzylamino)cyclobut-3-ene-1,2-dione]: the pIC50 is below 6.00.

The compound `CC(=O)Nc1ccc(CNc2c(Nc3ccc4[nH]cnc4c3)c(=O)c2=O)cc1` [Compound A157, 3-(1H-benzimidazol-5-ylamino)-4-(4-acetamidobenzylamino)cyclobut-3-ene-1,2-dione] had a pIC50 below 6.00. `O=c1c(NCc2ccccc2O)c(Nc2ccc3[nH]cnc3c2)c1=O` [Compound A158, 3-(1H-benzimidazol-5-ylamino)-4-(2-hydroxy-benzylamino)cyclobut-3-ene-1,2-dione] had a pIC50 below 6.00.

The compound `NC(=O)c1ccc(CNc2c(Nc3ccc4[nH]cnc4c3)c(=O)c2=O)cc1` [Compound A159, 3-(1H-benzimidazol-5-ylamino)-4-(4-amino-carbonylbenzylamino)cyclobut-3-ene-1,2-dione] had a pIC50 below 6.00. `O=c1[nH]c2cc(CNc3c(Nc4ccc5[nH]cnc5c4)c(=O)c3=O)ccc2o1` [Compound A160, 3-(1H-benzimidazol-5-ylamino)-4-[(2-oxo-2,3-dihydrobenzoxazol-5-ylmethyl)amino]-cyclobut-3-ene-1,2-dione] had a pIC50 below 6.00. In the case of `Cc1ccc(CC(O)c2cccc(CNc3c(Nc4ccc5[nH]cnc5c4)c(=O)c3=O)c2)cc1` (stereo not drawn) [Compound A161, 3-(1H-benzimidazol-5-ylamino)-4-[3-(1-hydroxy-2-p-tolylethyl)benzylamino]cyclobut-3-ene-1,2-dione], the pIC50 was below 6.00. The same measure for `O=c1c(NCc2ccc(Cl)c(Cl)c2)c(Nc2ccc3[nH]cnc3c2)c1=O` [Compound A162, 3-(1H-benzimidazol-5-ylamino)-4-(3,4-dichlorobenzylamino)cyclobut-3-ene-1,2-dione]: below 6.00; for `O=c1cnc2ccc(CNc3c(Nc4ccc5[nH]cnc5c4)c(=O)c3=O)cc2[nH]1` [Compound A163, 3-(1H-benzimidazol-5-ylamino)-4-[(3-oxo-3,4-dihydroquinoxalin-6-ylmethyl)amino]cyclobut-3-ene-1,2-dione]: below 6.00.

Take `O=c1c(NCc2cccc(OC(F)F)c2)c(Nc2ccc3nc[nH]c3c2)c1=O` [Compound A164, 3-(3H-benzimidazol-5-ylamino)-4-(3-difluoro-methoxybenzylamino)cyclobut-3-ene-1,2-dione]: the pIC50 was below 6.00. `CCN(CC)CCn1cnc2ccc(Nc3c(NCc4ccc(-c5nnn[nH]5)cc4)c(=O)c3=O)cc21` [Compound A167, 3-[3-(2-diethylaminoethyl)-3H-benzimidazol-5-ylamino]-4-[4-(1H-tetrazol-5-yl)benzyl-amino]cyclobut-3-ene-1,2-dione]: the pIC50 is below 6.00. Turning to `CCN(CC)CCn1cnc2cc(Nc3c(N[C@H](C)c4cccc(OC)c4)c(=O)c3=O)ccc21` [Compound A168, 3-[1-(2-diethylaminoethyl)-1H-benzimidazol-5-ylamino]-4-[(R)-1-(3-methoxyphenyl)ethyl-amino]cyclobut-3-ene-1,2-dione], the pIC50 was below 6.00.

The record behind these values is US20080234266A1, “Squaric Acid Derivatives II” (priority 2005, published 2008).
